One block for each compound: values may come before it.
How the values were obtained:
Assay type in all cases: cell-based
[1] = tested on: MDA-MB-231 breast cancer cells; experiment: clonogenic assay (colony formation), MDA-MB-231; conditions: MDA-MB-231, 10 μM analogs, 14 days; for activity at 10 µM: Homo sapiens, 336 h, read-out: Effect on cell proliferation (colony formation) (% of vehicle control)
Description: To determine if these analogs have anti-migration and anti-invasion activities in different cancer cell lines, transwell migration assays were performed using MDA-MB-231 breast cancer cells (FIG. 3) and HeLa cells (FIG. 5) for all synthetic analogs. […] Next, clonogenic assays were performed on the breast cancer cells treated with the compounds to rule out any indirect effect on cell migration due to cytotoxicity (FIG. 4). MDA-MB-231 cells were allowed to grow for 14 days in six-well plates in the presence or absence of the synthetic compounds at 10 μM.
To rule out any indirect effect on cell migration due to cytotoxicity, clonogenic assays were performed on the breast cancer cells treated with the compounds. MDA-MB-231 cells were allowed to grow for 14 days in six-well plates in the presence or absence of the synthetic compounds at 10 μM. […] For example, analog 3g blocked both cell migration (81.4%) and colony formation (42.7%). For these analogs cytotoxity may have partially contributed to their overall anti-migration effect. The cell toxicity data for all analogs are listed in Table 1 along with anti-migration data for comparison.

[2] = antimigration efficacy of additional thiazole compounds (Table 3); conditions: cell line not given; read-out: IC50 (anti-migration)
Source text: (§1) The additional thiazole compounds were synthesized and tested for antimigration efficacy and cytotoxicity, with results shown in TABLE 3.

[3] = cytotoxicity of additional thiazole compounds (Table 3); conditions: cell line not given
Source text: as §1

IC50 [2]: 1030 nM
SMILES: COc1cc(C(=O)Nc2nc(-c3cc(OC)c(OC)c(OC)c3)cs2)cc(OC)c1OC [Compound 14o, 3,4,5-Trimethoxy-N-(4-(3,4,5-trimethoxyphenyl)thiazol-2-yl)benzamide]
Cytotoxicity (Survival at 1 μM) [3]: 77.6%

IC50 [2]: > 25000 nM
SMILES: COc1ccccc1C(=O)N(C)c1nc(-c2cc(OC)c(OC)c(OC)c2)cs1 [Compound 16l, 2-Methoxy-N-methyl-N-(4-(3,4,5-trimethoxyphenyl)thiazol-2-yl)benzamide]
Cytotoxicity (Survival at 1 μM) [3]: 109.3%

IC50 [2]: 10000 nM
SMILES: COc1cc(-c2csc(N(C)C(=O)c3ccccc3)n2)cc(OC)c1OC [Compound 16d, N-Methyl-N-(4-(3,4,5-trimethoxyphenyl)thiazol-2-yl)benzamide]
Cytotoxicity (Survival at 1 μM) [3]: 96.4%

IC50 [2]: > 50000 nM
SMILES: COc1cc(-c2csc(NC(=O)c3ccccc3)n2)cc(OC)c1OC [Compound 14g, N-(4-(3,4,5-Trimethoxyphenyl)thiazol-2-yl)benzamide]
Cytotoxicity (Survival at 1 μM) [3]: 95.0%

IC50 [2]: 15000 nM
SMILES: COc1cc(-c2csc(NC(=O)c3cccc(OC)c3OC)n2)cc(OC)c1OC [Compound 14p, 2,3-Dimethoxy-N-(4-(3,4,5-trimethoxyphenyl)thiazol-2-yl)benzamide]
Cytotoxicity (Survival at 1 μM) [3]: 90.1%

IC50 [2]: 646 nM
SMILES: COc1cccc(C(=O)N(C)c2nc(-c3cc(OC)c(OC)c(OC)c3)cs2)c1 [Compound 16m, 3-Methoxy-N-methyl-N-(4-(3,4,5-trimethoxyphenyl)thiazol-2-yl)benzamide]
Cytotoxicity (Survival at 1 μM) [3]: 88.9%

IC50 [2]: 300 nM
SMILES: Cn1c(-c2cccc(Br)c2)csc1=NC(=O)c1ccccc1 [Compound 15c, N-(4-(3-Bromophenyl)-3-methylthiazol-2(3H)-ylidene)benzamide]
Cytotoxicity (Survival at 1 μM) [3]: 94.4%

IC50 [2]: 10000 nM
SMILES: O=C(Nc1nc(-c2cccc(Br)c2)cs1)c1ccccc1 [Compound 14c, N-(4-(3-Bromophenyl)thiazol-2-yl)benzamide]
Cytotoxicity (Survival at 1 μM) [3]: 78.0%

IC50 [2]: 437 nM
SMILES: CN(C(=O)c1ccccc1)c1nc(-c2cccc(Br)c2)cs1 [Compound 16b, N-(4-(3-Bromophenyl)thiazol-2-yl)-N-methylbenzamide]
Cytotoxicity (Survival at 1 μM) [3]: 104.4%

IC50 [2]: 1960 nM
SMILES: COc1cc(C(=O)/N=c2/scc(-c3cc(OC)c(OC)c(OC)c3)n2C)cc(OC)c1OC [Compound 15o, 3,4,5-Trimethoxy-N-(3-methyl-4-(3,4,5-trimethoxyphenyl)thiazol-2(3H)-ylidene) benzamide]
Cytotoxicity (Survival at 1 μM) [3]: 81.5%

IC50 [2]: 8500 nM
SMILES: COc1ccccc1C(=O)Nc1nc(-c2cc(OC)c(OC)c(OC)c2)cs1 [Compound 14q, 2-Methoxy-N-(4-(3,4,5-trimethoxyphenyl)thiazol-2-yl)benzamide]
Cytotoxicity (Survival at 1 μM) [3]: 103.7%

IC50 [2]: > 50000 nM
SMILES: COc1ccc(C(=O)Nc2nc(-c3cc(OC)c(OC)c(OC)c3)cs2)c(OC)c1 [Compound 14n, 2,4-Dimethoxy-N-(4-(3,4,5-trimethoxyphenyl)thiazol-2-yl)benzamide]
Cytotoxicity (Survival at 1 μM) [3]: 93.8%

IC50 [2]: 470 nM
SMILES: COc1cc(C(=O)N(C)c2nc(-c3cc(OC)c(OC)c(OC)c3)cs2)cc(OC)c1OC [Compound 16j, 3,4,5-Trimethoxy-N-methyl-N-(4-(3,4,5-trimethoxyphenyl)thiazol-2-yl)benzamide]
Cytotoxicity (Survival at 1 μM) [3]: 114.8%

IC50 [2]: 14000 nM
SMILES: COc1cccc(C(=O)Nc2nc(-c3cc(OC)c(OC)c(OC)c3)cs2)c1 [Compound 14r, 3-Methoxy-N-(4-(3,4,5-trimethoxyphenyl)thiazol-2-yl)benzamide]
Cytotoxicity (Survival at 1 μM) [3]: 92.6%

IC50 [2]: > 25000 nM
SMILES: COc1ccc(C(=O)Nc2nc(-c3cc(OC)c(OC)c(OC)c3)cs2)cc1OC [Compound 14m, 3,4-Dimethoxy-N-(4-(3,4,5-trimethoxyphenyl)thiazol-2-yl)benzamide]
Cytotoxicity (Survival at 1 μM) [3]: 87.3%

IC50 [2]: > 25000 nM
SMILES: COc1ccc(C(=O)Nc2nc(-c3cc(OC)c(OC)c(OC)c3)cs2)cc1 [Compound 14k, 4-Methoxy-N-(4-(3,4,5-trimethoxyphenyl)thiazol-2-yl)benzamide]
Cytotoxicity (Survival at 1 μM) [3]: 93.8%

The next lines start with the compound.

SMILES: Cn1c(-c2ccccc2)cs/c1=N/C(=O)c1ccc(Br)cc1 [Compound 5d, 4-Bromo-N-(3-methyl-4-phenylthiazol-2(3H)-yliene)benzamide]
activity at 10 µM [1]: 63.8%

SMILES: CN(C(=O)c1ccc(Br)cc1)c1nc(-c2ccccc2)cs1 [Compound 4a, 4-Bromo-N-methyl-N-(4-phenylthiazol-2-yl)benzamide]
activity at 10 µM [1]: 108%

SMILES: COc1ccc(C(=O)N(C)c2nc(-c3ccccc3)cs2)cc1OC [Compound 4c, 3,4-Dimethoxy-N-methyl-N-(4-phenylthiazol-2-yl)benzamide]
activity at 10 µM [1]: 97.1%

SMILES: Nc1nc(-c2ccccc2)cs1 [Compound 2a, 2-Amino-4-phenylthiazole]
activity at 10 µM [1]: 104%

SMILES: CN(C(=O)C1CCCC1)c1nc(-c2ccccc2)cs1 [Compound 4f, N-Methyl-N-(4-phenylthiazol-2-yl)cyclopentanecarboxamide]
activity at 10 µM [1]: 132%

SMILES: CCN(C(=O)c1ccco1)c1nc(-c2ccccc2)cs1 [Compound 4d, N-Ethyl-N-(4-phenylthiazol-2-yl)furan-2-carboxamide]
activity at 10 µM [1]: 96.5%

SMILES: Cn1c(-c2ccccc2)cs/c1=N/C(=O)c1cccnc1 [Compound 5h, N-(3-Methyl-4-phenylthiazol-2(3H)-yliene)nicotinamide]
activity at 10 µM [1]: 112%

SMILES: Cc1ccc(-c2csc(N(C)C(=O)c3cccs3)n2)c(C)c1 [Compound 4b, N-(4-(2,4-dimethylphenyl)thiazol-2-yl)-N-methylthiophene-2-carboxamide]
activity at 10 µM [1]: 97.7%

SMILES: CCCCCC(=O)Nc1nc(-c2ccccc2)cs1 [Compound 3m, N-(4-Phenylthiazol-2-yl)hexanamide]
activity at 10 µM [1]: 90.7%

SMILES: CN(C(=O)C1CCCCC1)c1nc(-c2ccccc2)cs1 [Compound 4g, N-Methyl-N-(4-phenylthiazol-2-yl)cyclohexanecarboxamide]
activity at 10 µM [1]: 97.5%

SMILES: COc1cc(C(=O)/N=c2/scc(-c3ccccc3)n2C)cc(OC)c1OC [Compound 5e, 3,4,5-Trimethoxy-N-(3-methyl-4-phenylthiazol-2(3H)-yliene)benzamide]
activity at 10 µM [1]: 75.4%

SMILES: Cn1c(-c2ccccc2)cs/c1=N/C(=O)c1cccs1 [Compound 5a, N-(3-Methyl-4-phenylthiazol-2(3H)-yliene)thiophene-2-carboxamide]
activity at 10 µM [1]: 85%

SMILES: O=C(Nc1nc(-c2ccccc2)cs1)c1ccco1 [Compound 3b, N-(4-Phenylthiazol-2-yl)furan-2-carboxamide]
activity at 10 µM [1]: 98.8%

SMILES: COc1ccc(C(=O)N=c2scc(-c3ccccc3)n2C)cc1OC [Compound 5g, 3,4-Dimethoxy-N-(3-methyl-4-phenylthiazol-2(3H)-yliene)benzamide]
Effect on cell proliferation (colony formation) (% of vehicle control) [1]: 40.9%

SMILES: O=C(Nc1nc(-c2ccccc2)cs1)C1CCCC1 [Compound 3k, N-(4-Phenylthiazol-2-yl)cyclopentanecarboxamide]
activity at 10 µM [1]: 99.8%

SMILES: Cc1ccc(-c2cs/c(=N/C(=O)c3cccs3)n2C)c(C)c1 [Compound 5f, N-(4-(2,4-dimethylphenyl)-3-methylthiazol-2(3H)-yliene)thiophene-2-carboxamide]
activity at 10 µM [1]: 102%

SMILES: O=C(Nc1nc(-c2ccccc2)cs1)c1cccnc1 [Compound 3h, N-(4-Phenylthiazol-2-yl)nicotinamide]
activity at 10 µM [1]: 103%

SMILES: CCCCCC(=O)N(C)c1nc(-c2ccccc2)cs1 [Compound 4h, N-Methyl-N-(4-phenylthiazol-2-yl)hexanamide]
activity at 10 µM [1]: 128%

SMILES: COc1cc(C(=O)Nc2nc(-c3ccccc3)cs2)cc(OC)c1OC [Compound 3e, 3,4,5-Trimethoxy-N-(4-phenylthiazol-2-yl)benzamide]
activity at 10 µM [1]: 80.9%

SMILES: CCCCn1c(-c2ccc(C)cc2C)csc1=NC(=O)c1ccccc1 [Compound 5n, N-(3-Butyl-4-(2,4-dimethylphenyl)thiazol-2(3H)-ylidene)benzamide]
IC50 [2]: 333 nM
Cytotoxicity (Survival at 1 μM) [3]: 70.4%

SMILES: Cc1ccc(-c2csc(=NS(=O)(=O)c3ccccc3)n2C)c(C)c1 [Compound 11, N-(4-(2,4-Dimethylphenyl)-3-methylthiazol-2(3H)-ylidene)benzenesulfonamide]
IC50 [2]: 1460 nM
Cytotoxicity (Survival at 1 μM) [3]: 92.4%

SMILES: CCCCCCCCCCCC(=O)N(C)c1nc(-c2ccccc2)cs1 [Compound 4i, N-Methyl-N-(4-phenylthiazol-2-yl)dodecanamide]
activity at 10 µM [1]: 111%

SMILES: O=C(Nc1nc(-c2ccccc2)cs1)c1ccc(Cl)cc1 [Compound 3c, 4-Chloro-N-(4-phenylthiazol-2-yl)benzamide]
activity at 10 µM [1]: 95%

SMILES: C=CCn1c(-c2ccc(C)cc2C)csc1=NC(=O)c1ccccc1 [Compound 5q, N-(3-Allyl-4-(2,4-dimethylphenyl)thiazol-2(3H)-ylidene)benzamide]
IC50 [2]: 242 nM
Cytotoxicity (Survival at 1 μM) [3]: 115.3%

SMILES: CCCCCCCCCCCCn1c(-c2ccc(C)cc2C)csc1=NC(=O)c1ccccc1 [Compound 5p, N-(4-(2,4-Dimethylphenyl)-3-dodecylthiazol-2(3H)-ylidene)benzamide]
IC50 [2]: 32 nM
Cytotoxicity (Survival at 1 μM) [3]: 109.5%

SMILES: C=CCn1c(-c2ccccc2)csc1=NC(=O)c1ccccc1 [Compound 7c, N-(3-Allyl-4-phenylthiazol-2(3H)-ylidene)benzamide]
IC50 [2]: 24.3 nM
Cytotoxicity (Survival at 1 μM) [3]: 64.8%
